In ChEMBL document CHEMBL5257089, “Gamabufotalin Induces Apoptosis and Cytoprotective Autophagy through the mTOR Signaling Pathway in Hepatocellular Carcinoma” (J Nat Prod, 2023):
Active and inactive are the calls of the source. The rule behind the calls is not given here.

What was measured:
Hep 3B2 [1] = experiment: Induction of apoptosis in human Hep3B cells assessed as increase in PARP level at 10 nM incubated for 48 hrs in presence of gamabufotalin by immunoblot analysis; format: functional, cell-based
Huh-7 [2] = experiment: Induction of autophagy in human Huh-7 cells assessed as rescue of ULK1 phosphorylation level at upto 10 nM incubated for 48 hrs in presence of gamabufotalin by immunoblot method; format: functional, cell-based
Hep 3B2 [3] = experiment: Induction of autophagic flux in human Hep3B cells assessed as rescue of LC3-II accumulation at 10 uM incubated for 48 hrs in presence of gamabufotalin by Western blot analysis; format: functional, cell-based
Huh-7 [4] = experiment: Induction of apoptosis in human Huh-7 cells assessed as increase in cleaved PARP level at 10 nM incubated for 48 hrs in presence of gamabufotalin by immunoblot analysis; format: functional, cell-based
Huh-7 [5] = experiment: Induction of apoptosis in human Huh-7 cells assessed as necrotic cells at 10 nM incubated for 48 hrs in presence of gamabufotalin by Annexin V-FITC/PI staining based flow cytometry method (reference value: 1.0%); format: functional
Huh-7 [6] = experiment: Induction of apoptosis in human Huh-7 cells assessed as necrotic cells at 10 nM incubated for 48 hrs by Annexin V-FITC/PI staining based flow cytometry method (reference value: 1.0%); format: functional
Huh-7 [7] = experiment: Induction of autophagy in human Huh-7 cells assessed as reduction in mTOR phosphorylation level incubated for 48 hrs by immunoblot method; format: functional, cell-based; settings: dose 0-25 nM
Huh-7 [8] = experiment: Induction of autophagic flux in human Huh-7 cells harbouring mCherry-egfp-LC3 assessed as reduction in number of red puncta ratio at 25 nM incubated for 15 mins in presence of chloroquine by laser scanning confocal microscopic analysis; format: functional, cell-based
Huh-7 [9] = experiment: Induction of apoptosis in human Huh-7 cells assessed as late apoptotic cells at 25 nM measured after 48 hrs in presence of z-VAD-FMK by annexin V-FITC/Propidium iodide staining based flow cytometric analysis (reference value: 6.1%); format: functional
Hep 3B2 [10] = experiment: Induction of apoptosis in human Hep3B cells assessed as viable cells at 20 nM incubated for 48 hrs by Annexin V-FITC/PI staining based flow cytometry method (reference value: 93.3%); format: functional; settings: read-out: Activity
[11] = Toxicity in mouse assessed as effect on heart at 5 mg/kg,ip administered every second day for 3 weeks by H and E staining based microscopic method; format: organism-based; settings: in vivo, 504 h
Hep 3B2 [12] = experiment: Induction of autophagic flux in human Hep3B cells assessed as increase in high electron density vesicles at 25 nM incubated for 48 hrs by transmission electron microscopic analysis; format: functional, cell-based
Huh-7 [13] = experiment: Induction of apoptosis in human Huh-7 cells assessed as necrotic cells at 25 nM incubated for 48 hrs in presence of 4,6-dimorpholino-N-(4-nitrophenyl)-1,3,5-triazin-2-amine by Annexin V-FITC/PI staining based flow cytometry method (reference value: 1.9%); format: functional
Huh-7 [14] = experiment: Induction of apoptosis in human Huh-7 cells assessed as necrotic cells at 25 nM measured after 48 hrs in presence of z-VAD-FMK by annexin V-FITC/Propidium iodide staining based flow cytometric analysis (reference value: 0.0%); format: functional
Huh-7 [15] = experiment: Induction of apoptosis in human Huh-7 cells assessed as early apoptotic cells at 25 nM incubated for 48 hrs by Annexin V-FITC/PI staining based flow cytometry method (reference value: 1.7%); format: functional
Huh-7 [16] = experiment: Induction of autophagy in human Huh-7 cells assessed as restoration of ULK1 phosphorylation expression at 25 uM incubated for 48 hrs in presence of 4,6-dimorpholino-N-(4-nitrophenyl)-1,3,5-triazin-2-amine by immunoblot analysis; format: functional, cell-based
Huh-7 [17] = experiment: Induction of apoptosis in human Huh-7 cells assessed as early apoptotic cells at 25 nM incubated for 48 hrs by Annexin V-FITC/PI staining based flow cytometry method (reference value: 4.3%); format: functional
Hep 3B2 [18] = experiment: Induction of apoptosis in human Hep3B cells assessed as viable cells at 25 nM measured after 48 hrs in presence of Z-VAD-FMK by annexin V-FITC/Propidium iodide staining based flow cytometric analysis (reference value: 95.6%); format: functional; settings: read-out: Activity
Hep 3B2 [19] = experiment: Induction of apoptosis in human Hep3B cells assessed as early apoptotic cells at 25 nM measured after 48 hrs by annexin V-FITC/Propidium iodide staining based flow cytometric analysis (reference value: 1.6%); format: functional
Huh-7 [20] = experiment: Induction of apoptosis in human Huh-7 cells assessed as increase in cleaved caspase-3 level at 25 nM incubated for 48 hrs in presence of chloroquine by immunoblot analysis; format: functional, cell-based
Huh-7 [21] = experiment: Induction of apoptosis in human Huh-7 cells assessed as early apoptotic cells at 15 nM incubated for 48 hrs by Annexin V-FITC/PI staining based flow cytometry method (reference value: 1.7%); format: functional
Huh-7 [22] = experiment: Induction of apoptosis in human Huh-7 cells assessed as late apoptotic cells at 25 nM incubated for 48 hrs in presence of chloroquine by Annexin V-FITC/PI staining based flow cytometry method (reference value: 4.7%); format: functional
Hep 3B2 [23] = experiment: Induction of apoptosis in human Hep3B cells assessed as upregulation of bax level […] incubated for 48 hrs in presence of 4,6-dimorpholino-N-(4-nitrophenyl)-1,3,5-triazin-2-amine by immunoblot analysis; format: functional, cell-based
Hep 3B2 [24] = experiment: Induction of apoptosis in human Hep3B cells assessed as early apoptotic cells at 25 nM incubated for 48 hrs in presence of 4,6-dimorpholino-N-(4-nitrophenyl)-1,3,5-triazin-2-amine by Annexin V-FITC/PI staining based flow cytometry method (reference value: 1.3%); format: functional
Hep 3B2 [25] = experiment: Induction of autophagic flux in human Hep3B cells harbouring mCherry-egfp-LC3 assessed as reduction in number of red puncta ratio at 25 nM incubated for 15 mins in presence of chloroquine by laser scanning confocal microscopic analysis; format: functional, cell-based
Huh-7 [26] = experiment: Induction of apoptosis in human Huh-7 cells assessed as viable cells at 25 nM incubated for 48 hrs in presence of 4,6-dimorpholino-N-(4-nitrophenyl)-1,3,5-triazin-2-amine by Annexin V-FITC/PI staining based flow cytometry method (reference value: 90.0%); format: functional; settings: read-out: Activity
Hep 3B2 [27] = experiment: Induction of apoptosis in human Hep3B cells assessed as increase in cleaved caspase-3 level at 25 nM incubated for 48 hrs in presence of chloroquine by immunoblot analysis; format: functional, cell-based
Hep 3B2 [28] = experiment: Induction of apoptosis in human Hep3B cells assessed as viable cells at 25 nM incubated for 48 hrs by Annexin V-FITC/PI staining based flow cytometry method (reference value: 94.0%); format: functional; settings: read-out: Activity
Hep 3B2 [29] = experiment: Induction of apoptosis in human Hep3B cells assessed as […] level at upto 25 nM incubated for 48 hrs by Western blot analysis; format: functional, cell-based
Hep 3B2 [30] = experiment: Induction of apoptosis in human Hep3B cells assessed as […] expression at upto 25 nM incubated for 48 hrs by Western blot analysis; format: functional, cell-based
Hep 3B2 [31] = experiment: Induction of apoptosis in human Hep3B cells assessed as upregulation of cleaved PARP level […] incubated for 48 hrs in presence of 4,6-dimorpholino-N-(4-nitrophenyl)-1,3,5-triazin-2-amine by immunoblot analysis; format: functional, cell-based

For CCN(CC)CCCC(C)Nc1ccnc2cc(Cl)ccc12 (stereo unspecified) [CHLOROQUINE], the Activity (Hep 3B2 [1]) was “Active”, the Activity (Huh-7 [2]) was “Active” and the Activity (Hep 3B2 [3]) was “Active”. The Activity (Huh-7 [4]) was “Active”, the Activity (Huh-7 [5]) was 3.4% and the Activity (Huh-7 [6]) was 1.9%.
In the case of C[C@]12CC[C@H](O)C[C@H]1CC[C@@H]1[C@@H]2[C@H](O)C[C@]2(C)[C@@H](c3ccc(=O)oc3)CC[C@]12O [GAMABUFOTALIN], the Activity (Huh-7 [7]) was “Dose-Dependent Effect”, the Activity (Huh-7 [8]) was “Active” and the Activity (Huh-7 [9]) was 7.4%. The viability at 0.02 µM (Hep 3B2 [10]) was 88.7%, the Activity [11] was “Non-Toxic” and the Activity (Hep 3B2 [12]) was “Active”. It also gave an Activity (Huh-7 [13]) of 1.7%, an Activity (Huh-7 [14]) of 0.3% and an Activity (Huh-7 [15]) of 5.6%. The Activity (Huh-7 [16]) was “Active”, the Activity (Huh-7 [17]) was 8.7% and the viability at 0.025 µM (Hep 3B2 [18]) was 91.9%. For the same compound, the Activity (Hep 3B2 [19]) was 6.6%, the Activity (Huh-7 [20]) was “Active” and the Activity (Huh-7 [21]) was 4%. For the same compound, the Activity (Huh-7 [22]) was 19.1%, the Activity (Hep 3B2 [23]) was “Active” and the Activity (Hep 3B2 [24]) was 10.9%. The Activity (Hep 3B2 [25]) was “Active”, the viability at 0.025 µM (Huh-7 [26]) was 76.8% and the Activity (Hep 3B2 [27]) was “Active”. The viability at 0.025 µM (Hep 3B2 [28]) was 71.4%, the Activity (Hep 3B2 [29]) was “Active” and the Activity (Hep 3B2 [30]) was “Active”. For the same compound, the Activity (Hep 3B2 [31]) was “Active”.
